Experimental data: PubChem BioAssay (NCI)
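Protocol summary: plate cells (96-well), add compound at 5 concentrations, incubate 48 h, interpolate endpoints linearly. GI50: concentration for 50% inhibition of growth. At the TGI there is no net growth.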

What was measured:
Experiment in all cases: NCI anticancer screen, dose series, 48 h
OVCAR-3 ovarian = system: OVCAR-3 ovarian
U251 CNS = system: U251 CNS
SNB-75 CNS = system: SNB-75 CNS
SF-539 CNS = system: SF-539 CNS
NCI-H460 lung = system: NCI-H460 lung
HL-60(TB) leukemia = system: HL-60(TB) leukemia
786-0 renal = system: 786-0 renal
HCT-15 colon = system: HCT-15 colon
M14 melanoma = system: M14 melanoma
SNB-19 CNS = system: SNB-19 CNS

SMILES	GI50 (OVCAR-3 ovarian)	TGI (OVCAR-3 ovarian)	GI50 (U251 CNS)	TGI (U251 CNS)	GI50 (SNB-75 CNS)	TGI (SNB-75 CNS)	GI50 (SF-539 CNS)	TGI (SF-539 CNS)	GI50 (NCI-H460 lung)	TGI (NCI-H460 lung)	GI50 (HL-60(TB) leukemia)	TGI (HL-60(TB) leukemia)	GI50 (786-0 renal)	TGI (786-0 renal)	GI50 (HCT-15 colon)	TGI (HCT-15 colon)	GI50 (M14 melanoma)	TGI (M14 melanoma)	GI50 (SNB-19 CNS)	TGI (SNB-19 CNS)
COc1cc(-c2cn(-c3ccc(Cl)c(Cl)c3)c(=O)n2C(C)=O)cc(OC)c1OC	14.9 µM	38.1 µM	8.86 µM	21.3 µM	9.64 µM	33.8 µM	2.07 µM	4.29 µM	10.5 µM	25.1 µM	14.2 µM	33.9 µM	2.79 µM	11.5 µM	18.1 µM	45.9 µM	16.7 µM	45.7 µM	11.3 µM	33.2 µM
COc1ccc(Cn2cc3c(c2)-c2oncc2CC3)cc1	2.61 µM	6.51 µM	4.43 µM	> 92 µM	2.95 µM	40.5 µM	2.94 µM	14.9 µM	3.47 µM	16.5 µM	1.72 µM	8.26 µM	13.2 µM	> 100 µM	4.33 µM	> 70.6 µM	3.12 µM	61.7 µM	9.05 µM	> 100 µM
OC1(c2ccccc2)OC(C#Cc2ccccc2)(c2ccccc2)c2ccccc21 (stereo not given)		5.93 µM		15.1 µM		20.4 µM		4.07 µM		17.7 µM		> 100 µM		13.5 µM		13.1 µM		3.97 µM		26.3 µM
O=C1C(c2ccccc2)=[N+]([O-])c2ccccc21		29.1 µM		28.7 µM		37.5 µM		32.8 µM		32.7 µM		42.2 µM		34.1 µM		37.9 µM		27 µM		37.5 µM
Cc1cc(S(=O)(=O)NC#N)c(S/C(=N\Nc2ccc([N+](=O)[O-])cc2)c2ccc(Cl)cc2)cc1Cl	21.2 µM	> 100 µM	48.2 µM	> 100 µM	38.1 µM	> 100 µM	13.7 µM	28.9 µM	26.7 µM	> 100 µM	36.2 µM	> 100 µM	39.6 µM	> 100 µM	11.6 µM	59.7 µM	54.5 µM	> 100 µM	25.2 µM	> 100 µM
Fc1cc2[nH]ncc2c2c3c(c(-c4cn[nH]c4C(F)(F)F)nc12)C1CCC3C1 (stereo not given)	1.39 µM	4.87 µM	1.4 µM	5.09 µM	0.945 µM	2.93 µM	0.82 µM	2.1 µM	1.15 µM	5.5 µM	1.1 µM	2.6 µM	1.19 µM	5.27 µM	1.33 µM	7.28 µM	0.791 µM	3.53 µM	1.59 µM	6.57 µM
CN1CC[C@]2(C)c3ccc(O)cc3CC3CCCC1C32C (stereo not given in full)		> 100 µM		> 100 µM		> 100 µM		> 100 µM		> 100 µM		> 100 µM		> 100 µM		> 100 µM		> 100 µM		> 100 µM
CS(=O)(=O)CSCSSCS(C)(=O)=O		> 100 µM		> 100 µM		> 100 µM		53.5 µM		> 84.8 µM		55.7 µM		41.3 µM		> 84.8 µM		40.8 µM		> 100 µM
C[C@]12CCCC(=O)C1(O)C[C@H](C(=O)O)CC2 (stereo not given in full)		> 100 µM		> 100 µM		> 100 µM		> 100 µM		> 100 µM		> 100 µM		> 100 µM		> 100 µM		> 100 µM		> 100 µM
COc1ccc(-c2ccc(-c3ccc(C(=N)N)cn3)o2)cc1	8.9 µM	21.6 µM	4.7 µM	17.4 µM	10.5 µM	22.5 µM	4.74 µM	17.8 µM	3.69 µM	14 µM	2.14 µM	5.7 µM	6.02 µM	18.8 µM	4.62 µM	17.7 µM	2.12 µM	4.68 µM	11.7 µM	24.6 µM
Cc1nc2sccn2c1-c1csc(Nc2cccc(Cl)c2C)n1	5.23 µM	32.2 µM	4.37 µM	19.6 µM	3.19 µM	28.3 µM	6.61 µM	25.3 µM	3.58 µM	20.3 µM	3.43 µM	19.3 µM	9.62 µM	79.7 µM	3.62 µM	31.9 µM	5.04 µM	28.5 µM	12.6 µM	> 100 µM
CCn1c(-c2nonc2N)nc2c(C#CC(C)(C)O)nc(OCCNC)cc21	6.16 µM	17.7 µM	6.5 µM	> 25 µM	7.78 µM	> 25 µM	6.11 µM	20.7 µM	7.83 µM	> 25 µM	7.78 µM	18.2 µM	7.98 µM	> 25 µM	9.67 µM	> 25 µM	8.15 µM	22.6 µM	8.4 µM	> 25 µM
COC1OC(CO)C(O)C1N (stereo not given)		> 100 µM		> 100 µM		> 100 µM		> 100 µM		> 100 µM		> 100 µM		> 100 µM		> 100 µM		> 100 µM		> 100 µM
COc1ccccc1/C=C/C(=O)c1ccccc1	5.92 µM	15.2 µM	3.69 µM	15 µM	13.1 µM	27.1 µM	16.4 µM	30.8 µM	13.7 µM	31.9 µM	2.18 µM	20.9 µM	18.3 µM	32.8 µM	3.47 µM	14.7 µM	12.2 µM	27 µM	12.7 µM	26.4 µM
N.N.N.N.O=C([O-])C(Cl)Cl.O=C([O-])C(Cl)Cl.[Co+3].[O-][Cl+3]([O-])([O-])[O-]	> 100 µM	> 100 µM	> 100 µM	> 100 µM	> 100 µM	> 100 µM	> 100 µM	> 100 µM	> 100 µM	> 100 µM	> 100 µM	> 100 µM	> 100 µM	> 100 µM	> 100 µM	> 100 µM	> 100 µM	> 100 µM	> 100 µM	> 100 µM
COC1C2C=CC(C2)[C@H]1[N+](=O)[O-] (stereo not given in full)		> 100 µM		> 100 µM		> 100 µM		> 100 µM		> 100 µM		> 100 µM		> 100 µM		> 100 µM		> 100 µM		> 100 µM
